Data published in patent US7456197B2, “Pyridinium cationic lipids as gene transfer agents” (The Texas A&M University System, priority 2003, dated 2008).
“Also recorded” adds a separate entry of the source.

Experiments:
[1] = Critical (phase transition) temperature Tc by differential scanning calorimetry; assay type: physicochemical
Summary of the method: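 Phase transition temperature Tc of the cationic lipids measured by differential scanning calorimetry at a heating rate of 5 °C/minute.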

[2] = test system: breast carcinoma MDA-Mb231; assay: Luciferase (pGL3) transfection efficiency of lipoplexes, MDA-Mb231; assay type: cell-based; conditions: optimized lipoplexes, Chol 1:1, FIG. 7
Description: (§1) It is well known that specific cell types and cell lines may vary in their ability to be transfected. In addition to the NCI-H23 lung cancer cell line, we therefore tested our optimized formulation of 5AMyr/Chol 1:1 versus DOTAP/Chol 1:1 as reference on four other cell lines from tumors representing cancers of great importance to human health, as well as different tissues of origin: breast carcinomas MCF-7, MDA-Mb231, prostate carcinoma DU-145 and glioma SWB-95 (FIG. 7).
(§2) Dioleoylphosphatidylethanolamine (DOPE), cholesterol (CHOL), N-(2,3-dioleoyloxypropyl)-N,N,N-trimethylammonium chloride (DOTAP) were commercial products. The purity of the lipids was checked by thin layer chromatography and also by differential scanning calorimetry (DSC), which was also used for determining the critical temperature Tc. For the preparation of the liposomes a protocol optimized for this type of compounds was adopted as follows. The cationic lipid (with or without helper lipid) was dissolved in chloroform/methanol (2/1, v/v) to reach a final concentration of 1 mM for the charged species. […]
(§3) For the luciferase assay, 20 μL of cell lysate was aliquoted in a test tube and assessed directly using a luciferase assay kit from Promega by means of a luminometer.
(§4) The protein content was quantified using a bicinchoninic acid (BCA) assay. […]

[3] = test system: prostate carcinoma DU-145; assay: Luciferase (pGL3) transfection efficiency of lipoplexes, DU-145; assay type: cell-based; conditions: optimized lipoplexes, Chol 1:1, FIG. 7
Description: as §1, §2, §3, §4

cancer cell line NCI-H23 = assay: WST-1 viability assay of transfected cells; assay type: cell-based, human
Experimental: FIG. 6. Viability assay results for the cancer cell line NCI-H23 transfected with 5AMyr-5EMyr and DOTAP (Cl^−)-based lipoplexes. The other characteristics were the same as in the transfection experiment represented in FIG. 5.
In order to assess the cytotoxicity associated with every anion, a WST-1^28 viability assay was conducted in parallel.

CCCCCCCCCCCCCC(=O)OCC(COC(=O)CCCCCCCCCCCCC)[n+]1c(C)cc(C)cc1C.F[P-](F)(F)(F)(F)F [Lipid 5AMyr, 1-(1,3-dimyristoyloxypropane-2-yl)-2,4,6-trimethylpyridinium hexafluorophosphate]
Tc (critical temperature), Pure ([1]; pure lipid): 67.8 °C
Tc (critical temperature), With DOPE (1:1 molar ratio) ([1]; with DOPE, 1:1 molar ratio): 22.4 °C
Tc (critical temperature), With cholesterol (1:1 molar ratio) ([1]; with cholesterol, 1:1 molar ratio): 64.8 °C
transfection efficiency (luciferase activity normalized for protein) [2]: 2950 RLU/μg of protein
transfection efficiency (luciferase activity normalized for protein) [3]: 327 RLU/μg of protein
cytotoxicity (WST-1 viability) (cancer cell line NCI-H23; NCI-H23 transfected with lipoplexes, Chol 1:1, FIG. 6): minimum cytotoxicity; also recorded: lower cytotoxic effect
cytotoxic effect on longer cell exposure to lipoplexes (cancer cell line NCI-H23; exposure from one hour to three hours, data not shown): without any visible cytotoxic effect
